Experimental findings from US20230365537A1, “POLO LIKE KINASE 4 INHIBITORS” (ORIC Pharmaceuticals, Inc., priority 2021, published 2023) are described below.

What is called IC50 is the concentration at which inhibition is half-maximal.

In assay [1] the test system is CHP-134 cells. The assay is described as follows: CHP134 CellTiter-Glo (CTG) Assay. The class given is cell-based. The note with it: Homo sapiens, CHP-134, 120 h, 5 days, viable cells by CellTiter-Glo. The gist of the method:
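CHP-134 cells seeded at 200 cells/well for 16 h, then given nine 1:3 serial dilutions in quadruplicate at 37° C, 5% CO2. Viable cells measured by CellTiter-Glo luminescence after 5 days; IC50 calculated from curves.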

The target of assay [2] is human recombinant Aurora A (Homo sapiens (Human), UniProt O14965). Put plainly: Aurora A Kinase Biochemical Assay (ADP-Glo). The note with it: ratio of Aurora A IC50 to PLK4 IC50 (selectivity).
In assay [3] the target is human recombinant Aurora B (Homo sapiens (Human), UniProt Q96GD4). The assay is described as follows: Aurora B Kinase Biochemical Assay (ADP-Glo). The note with it: ratio of Aurora B IC50 to PLK4 IC50 (selectivity). An outline of the steps:
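Recombinant human Aurora B (20 nM in pH 7.5 HEPES buffer with MgCl2, EGTA, DTT, Brij-35, BSA) preincubated with compound 15 min at RT. ADP formed quantified by ADP-Glo luminescence after ATP depletion (40 min) and detection (30 min). IC50 from four-parameter non-linear regression.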

Assay [4] concerns the target human recombinant PLK4 (Homo sapiens (Human), UniProt O00444). Put plainly: PLK4 Biochemical Assay (ADP-Glo). The note with it: 0.5 nM PLK4, 8.0 µM ATP, 4.7 µM MBP, 6 hours at RT. The gist of the method: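 Recombinant human PLK4 (added at 1.0 nM) was preincubated 15 min at RT with compound in 50 mM HEPES pH 7.5, 10 mM MgCl2, 1 mM EGTA, 1 mM DTT, 0.01% Brij-35, 0.01% BSA. ADP formed was detected by ADP-Glo luminescence (40 min ATP depletion, 30 min detection). IC50 came from a four-parameter fit.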
For orientation: ADP-Glo first removes unused ATP, then detects ADP through luciferase.

Chain of human recombinant Aurora B (Q96GD4 whole entry): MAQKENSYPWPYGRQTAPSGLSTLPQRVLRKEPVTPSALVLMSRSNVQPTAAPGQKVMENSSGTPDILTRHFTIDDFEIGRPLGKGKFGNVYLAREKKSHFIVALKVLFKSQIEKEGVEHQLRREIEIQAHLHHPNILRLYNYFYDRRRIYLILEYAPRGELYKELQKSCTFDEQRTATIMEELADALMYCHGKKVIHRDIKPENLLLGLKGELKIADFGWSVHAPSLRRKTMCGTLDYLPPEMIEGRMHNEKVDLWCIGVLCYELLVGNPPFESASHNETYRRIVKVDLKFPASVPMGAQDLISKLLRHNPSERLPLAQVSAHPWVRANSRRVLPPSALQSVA
Chain of human recombinant PLK4 (O00444 whole entry): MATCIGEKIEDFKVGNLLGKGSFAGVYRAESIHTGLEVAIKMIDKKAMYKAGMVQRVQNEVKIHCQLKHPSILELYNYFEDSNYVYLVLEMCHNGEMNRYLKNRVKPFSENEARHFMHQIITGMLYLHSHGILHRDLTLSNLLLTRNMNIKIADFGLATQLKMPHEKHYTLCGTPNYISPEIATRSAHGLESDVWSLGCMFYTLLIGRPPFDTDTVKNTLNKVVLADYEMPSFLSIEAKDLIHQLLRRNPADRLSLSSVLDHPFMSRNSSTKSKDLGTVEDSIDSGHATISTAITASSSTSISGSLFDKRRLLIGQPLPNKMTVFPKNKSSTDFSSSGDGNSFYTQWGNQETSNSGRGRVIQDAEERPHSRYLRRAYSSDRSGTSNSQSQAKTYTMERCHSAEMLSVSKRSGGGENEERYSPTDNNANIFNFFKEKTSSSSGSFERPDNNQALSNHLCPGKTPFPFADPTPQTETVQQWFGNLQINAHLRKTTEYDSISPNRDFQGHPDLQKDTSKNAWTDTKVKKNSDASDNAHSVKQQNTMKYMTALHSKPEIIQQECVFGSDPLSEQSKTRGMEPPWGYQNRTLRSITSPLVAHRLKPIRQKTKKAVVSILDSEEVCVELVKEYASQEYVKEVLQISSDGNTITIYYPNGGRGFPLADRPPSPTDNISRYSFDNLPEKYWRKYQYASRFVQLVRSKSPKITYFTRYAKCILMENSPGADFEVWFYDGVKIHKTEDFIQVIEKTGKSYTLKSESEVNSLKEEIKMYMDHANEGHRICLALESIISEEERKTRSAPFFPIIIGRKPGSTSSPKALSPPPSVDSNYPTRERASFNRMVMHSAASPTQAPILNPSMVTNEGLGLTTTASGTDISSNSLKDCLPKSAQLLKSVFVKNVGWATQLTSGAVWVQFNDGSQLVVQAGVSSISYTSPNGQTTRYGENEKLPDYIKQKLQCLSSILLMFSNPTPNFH
Chain of human recombinant Aurora A (O14965 whole entry): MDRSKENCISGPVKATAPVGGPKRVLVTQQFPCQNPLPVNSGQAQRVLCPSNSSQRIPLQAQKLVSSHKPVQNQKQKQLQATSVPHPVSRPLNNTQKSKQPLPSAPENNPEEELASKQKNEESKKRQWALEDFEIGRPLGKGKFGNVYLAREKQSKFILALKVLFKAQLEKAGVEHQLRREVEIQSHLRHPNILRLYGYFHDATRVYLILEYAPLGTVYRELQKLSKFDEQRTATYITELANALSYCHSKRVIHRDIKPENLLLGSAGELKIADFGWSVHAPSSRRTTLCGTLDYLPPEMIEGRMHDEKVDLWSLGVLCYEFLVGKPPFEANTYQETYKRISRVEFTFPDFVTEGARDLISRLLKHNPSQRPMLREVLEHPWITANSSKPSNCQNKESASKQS

Take `COc1ccc2c(c1)[C@]1(C[C@H]1c1ccc3c(Nc4cc5cccnc5cc4OC)n[nH]c3c1)C(=O)N2` [Example 161, (1R,2S)-5′-methoxy-2-{3-[(7-methoxyquinolin-6-yl)amino]-1H-indazol-6-yl}spiro[cyclopropane-1,3′-indol]-2′(1′1H)-one]: the IC50 came to 352 nM in assay [1] and 2.21 nM in assay [4]. The “[Aurora A IC50 (nM)]/[PLK4 IC50 (nM)]” value in assay [2] was found to be 291.4932. Besides, in assay [3], the “[Aurora B IC50 (nM)]/[PLK4 IC50 (nM)]” value is 258.4163.
For `COc1ccc2c(c1)[C@]1(C[C@H]1c1ccc3c(Nc4nc5ccccc5cc4OC)n[nH]c3c1)C(=O)N2` [Example 163, (1R,2S)-5′-methoxy-2-{3-[(3-methoxyquinolin-2-yl)amino]-1H-indazol-6-yl}spiro[cyclopropane-1,3′-indol]-2′(1′H)-one] the same measures were 226 nM, 1.52 nM, 2164.0420 and 389.4357.
For `COc1cnc(OC)c(Nc2n[nH]c3cc([C@@H]4C[C@@]45C(=O)Nc4ccc(OC)cc45)ccc23)c1` [Example 164, (1R,2S)-2-{3-[(2,5-dimethoxypyridin-3-yl)amino]-1H-indazol-6-yl}-5′-methoxyspiro[cyclopropane-1,3′-indol]-2′(1′H)-one] the same measures were 1640 nM, 6.28 nM, 397.0049 and 161.2235.
For `COc1ccc2c(c1)[C@]1(C[C@H]1c1ccc3c(Nc4nc(Cl)nc5ccoc45)n[nH]c3c1)C(=O)N2` [Example 165, (1R,2S)-2-{3-[(2-chlorofuro[3,2-d]pyrimidin-4-yl)amino]-1H-indazol-6-yl}-5′-methoxyspiro[cyclopropane-1,3′-indol]-2′(1′H)-one] the same measures were 1060 nM, 4.68 nM, 111.2559 and 76.9329.
With `COc1ccc2c(c1)[C@]1(C[C@H]1c1ccc3c(Nc4ccc(C(=O)N(C)C)nc4OC)n[nH]c3c1)C(=O)N2` [Example 166, 6-methoxy-5-({6-[(1R,2S)-5′-methoxy-2′-oxo-1′,2′-dihydrospiro[cyclopropane-1,3′-indol]-2-yl]-1H-indazol-3-yl}amino)-N,N-dimethylpyridine-2-carboxamide], the IC50 in assay [1] was 80.6 nM; in assay [4], 0.802 nM. The “[Aurora A IC50 (nM)]/[PLK4 IC50 (nM)]” value in assay [2] was determined as 1151.3716. In addition, the “[Aurora B IC50 (nM)]/[PLK4 IC50 (nM)]” value in assay [3] is 68.4539.
As for `COc1ccc2c(c1)[C@]1(C[C@H]1c1ccc3c(Nc4nc(N5CCCC5)ncc4OC)n[nH]c3c1)C(=O)N2` [Example 167, (1R,2S)-5′-methoxy-2-(3-{[5-methoxy-2-(pyrrolidin-1-yl)pyrimidin-4-yl)amino}-1H-indazol-6-yl)spiro[cyclopropano-1,3′-indol]-2′(1′H)-one], the 50% inhibitory concentration (IC50) in assay [1] came to 212 nM; in assay [4], 1.18 nM. In addition, the “[Aurora A IC50 (nM)]/[PLK4 IC50 (nM)]” value in assay [2] worked out at 295.5932. In assay [3], the “[Aurora B IC50 (nM)]/[PLK4 IC50 (nM)]” value is listed as 916.9492.
On to `COc1ccc2c(c1)[C@]1(C[C@H]1c1ccc3c(Nc4nc(N5CC[C@@H](F)C5)ncc4OC)n[nH]c3c1)C(=O)N2` [Example 169], for which the IC50 is 188 nM in assay [1] and 0.995 nM in assay [4]. In addition, the “[Aurora A IC50 (nM)]/[PLK4 IC50 (nM)]” value in assay [2] came to 666.9347. The “[Aurora B IC50 (nM)]/[PLK4 IC50 (nM)]” value in assay [3] is reported as 431.4573.
As to `COc1ccc2c(c1)[C@]1(C[C@H]1c1ccc3c(Nc4nc(N5CCC(F)(F)C5)ncc4OC)n[nH]c3c1)C(=O)N2` [Example 170, (1R,2S)-2-(3-{[2-(3,3-difluoropyrrolidin-1-yl)-5-methoxypyrimidin-4-yl]amino}-1H-indazol-6-yl)-5′-methoxyspiro[cyclopropane-1,3′-indol]-2′(1′H)-one], the concentration for half-maximal inhibition (IC50) in assay [1] was 326 nM; in assay [4], 1.36 nM. Further, the “[Aurora A IC50 (nM)]/[PLK4 IC50 (nM)]” value in assay [2] is recorded as 694.1090. For the same compound, in assay [3], the “[Aurora B IC50 (nM)]/[PLK4 IC50 (nM)]” value stood at 587.9234.
`COc1ccc2c(c1)[C@]1(C[C@H]1c1ccc3c(Nc4nc(Cl)nc5ccn(C)c45)n[nH]c3c1)C(=O)N2` [Example 171, (1R,2S)-2-{3-[(2-chloro-5-methyl-5H-pyrrolo[3,2-d]pyrimidin-4-yl)amino]-1H-indazol-6-yl}-5′-methoxyspiro[cyclopropane-1,3′-indol]-2′(1′H)-one]: the concentration for half-maximal inhibition (IC50) in assay [1] was found to be 1520 nM; in assay [4], 5.87 nM. For the same compound, the “[Aurora A IC50 (nM)]/[PLK4 IC50 (nM)]” value in assay [2] turned out to be 1176.6309. Moreover, the “[Aurora B IC50 (nM)]/[PLK4 IC50 (nM)]” value in assay [3] worked out at 259.2403.
With `COc1ccc2c(c1)[C@]1(C[C@H]1c1ccc3c(Nc4nc(C#N)ncc4OC)n[nH]c3c1)C(=O)N2` [Example 172, 5-methoxy-4-({6-[(1R,2S)-5′-methoxy-2′-oxo-1′,2′-dihydrospiro[cyclopropane-1,3′-indol]-2-yl]-1H-indazol-3-yl}amino)pyrimidine-2-carbonitrile], the figures for the IC50 in assay [1] and in assay [4] were 1260 nM and 4.09 nM, respectively. Also, the “[Aurora A IC50 (nM)]/[PLK4 IC50 (nM)]” value in assay [2] amounted to 324.94. The “[Aurora B IC50 (nM)]/[PLK4 IC50 (nM)]” value in assay [3] stood at 202.96.
Turning to `COc1ccc2c(c1)[C@]1(C[C@H]1c1ccc3c(Nc4nc(N5CC(F)(F)C5)ncc4OC)n[nH]c3c1)C(=O)N2` [Example 173, (1R,2S)-2-(3-([2-(3,3-difluoroazetidin-1-yl)-5-methoxypyrimidin-4-yl]amino}-1H-indazol-6-yl)-5′-methoxyspiro[cyclopropane-1,3′-indol]-2′(1 ‘H)-one], the IC50 was 332 nM in assay [1] and 2.67 nM in assay [4]. For the same compound, the “[Aurora A IC50 (nM)]/[PLK4 IC50 (nM)]” value in assay [2] was found to be 301.0878. The “[Aurora B IC50 (nM)]/[PLK4 IC50 (nM)]” value in assay [3] is 314.9287.
For `COc1ccc2c(c1)[C@]1(C[C@H]1c1ccc3c(Nc4nc(N5CC(F)C5)ncc4OC)n[nH]c3c1)C(=O)N2` [Example 174, (1R,2S)-2-(3-{[2-(3-fluoroazetidin-1-yl)-5-methoxypyrimidin-4-yl]amino}-1H-indazol-6-yl)-5′-methoxyspiro[cyclopropane-1,3′-indol]-2′(1′H)-one] the same measures were 392 nM, 1.92 nM, 365.8511 and 353.7741.
Take `CCS(=O)(=O)c1ccc(OC)c(Nc2n[nH]c3cc([C@@H]4C[C@@]45C(=O)Nc4ccc(OC)cc45)ccc23)c1` [Example 175, (1R,2S)-2-{3-[5-(ethanesulfonyl)-2-methoxyanilino]-1H-indazol-6-yl}-5′-methoxyspiro[cyclopropane-1,3′-indol]-2′(1′H)-one]: the IC50 in assay [1] came out at 2210 nM; in assay [4], 3.57 nM. The “[Aurora A IC50 (nM)]/[PLK4 IC50 (nM)]” value in assay [2] turned out to be 14009.5265. Further, the “[Aurora B IC50 (nM)]/[PLK4 IC50 (nM)]” value in assay [3] came out at 8627.0664.
Taken in the same sequence, the figures for `COc1ccc2c(c1)[C@]1(C[C@H]1c1ccc3c(Nc4cc(C(=O)N(C)C)ccc4OC)n[nH]c3c1)C(=O)N2` [Example 176, 4-methoxy-3-({6-[(1R,2S)-5′-methoxy-2′-oxo-1′,2′-dihydrospiro[cyclopropane-1,3′-indol]-2-yl]-1H-indazol-3-yl}amino)-N,N-dimethylbenzamide] were 1550 nM, 2.84 nM, 1725.2902 and 1300.3869.
Taken in the same sequence, the figures for `CNC(=O)c1ccc(OC)c(Nc2n[nH]c3cc([C@@H]4C[C@@]45C(=O)Nc4ccc(OC)cc45)ccc23)c1` [Example 177, 4-methoxy-3-({6-[(1R,2S)-5′-methoxy-2′-oxo-1′,2′-dihydrospiro[cyclopropane-1,3′-indol]-2-yl]-1H-indazol-3-yl}amino)-N-methylbenzamide] were 3680 nM, 4.25 nM, 11750.8813 and 11750.8813.
Regarding `COc1ccc2c(c1)[C@]1(C[C@H]1c1ccc3c(Nc4cc(S(=O)(=O)C(C)C)ccc4OC)n[nH]c3c1)C(=O)N2` [Example 178, (1R,2S)-5′-methoxy-2-{3-[2-methoxy-5-(propane-2-sulfonyl)anilino]-1H-indazol-6-yl}spiro[cyclopropane-1,3′-indol]-2′(1′H)-one], the results for the IC50 in assay [1] and in assay [4] were 631 nM and 3.29 nM, respectively. Moreover, the “[Aurora A IC50 (nM)]/[PLK4 IC50 (nM)]” value in assay [2] is given as 15179.1135. Besides, in assay [3], the “[Aurora B IC50 (nM)]/[PLK4 IC50 (nM)]” value was 15179.1135.
Consider `COc1ccc2c(c1)[C@]1(C[C@H]1c1ccc3c(Nc4cc(S(=O)(=O)N(C)C)ccc4OC)n[nH]c3c1)C(=O)N2` [Example 179, 4-methoxy-3-({6-[(1R,2S)-5′-methoxy-2′-oxo-1′,2′-dihydrospiro[cyclopropane-1,3′-indol]-2-yl]-1H-indazol-3-yl}amino)-N,N-dimethylbenzene-1-sulfonamide], for which the IC50 is 948 nM in assay [1] and 3.81 nM in assay [4]. Further, the “[Aurora A IC50 (nM)]/[PLK4 IC50 (nM)]” value in assay [2] is 13119.9160. The “[Aurora B IC50 (nM)]/[PLK4 IC50 (nM)]” value in assay [3] is given as 5384.4135.
